Source: paper PMC8348310, “Antioxidants Isolated from Elaeagnus umbellata (Thunb.) Protect against Bacterial Infections and Diabetes in Streptozotocin-Induced Diabetic Rat Model” (Molecules, 2021)

Experiments:
[1] = target: T1, Type-VI α-amylase (porcine pancreas) (Sus scrofa, UniProt P00690); test: In vitro α-amylase inhibition assay (DNSA); assay type: biochemical; conditions: read-out: % α-Amylase Inhibition Mean ± SEM
T1 construct: purchased Sigma Aldrich (Darmstadt, Germany); host or cells: porcine pancreas
T1 sequence (P00690 16-511): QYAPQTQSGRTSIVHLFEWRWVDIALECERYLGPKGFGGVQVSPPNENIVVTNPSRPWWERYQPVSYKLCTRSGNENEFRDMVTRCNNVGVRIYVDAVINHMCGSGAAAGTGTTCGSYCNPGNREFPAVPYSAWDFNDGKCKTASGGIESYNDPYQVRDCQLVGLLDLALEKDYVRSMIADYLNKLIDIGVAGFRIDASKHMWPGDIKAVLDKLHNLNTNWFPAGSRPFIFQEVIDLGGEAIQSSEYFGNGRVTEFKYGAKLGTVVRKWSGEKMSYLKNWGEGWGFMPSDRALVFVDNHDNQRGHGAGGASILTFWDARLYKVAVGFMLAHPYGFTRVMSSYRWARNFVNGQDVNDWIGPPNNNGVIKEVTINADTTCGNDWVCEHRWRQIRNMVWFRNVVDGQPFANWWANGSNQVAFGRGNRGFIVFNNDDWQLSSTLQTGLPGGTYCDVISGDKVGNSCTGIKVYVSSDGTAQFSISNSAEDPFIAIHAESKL
Description: The α-amylase inhibition activity of morin was assessed using 3, 5-dinitrosalicylic acid (DNSA) assay. Morin, phloroglucinol, and 1-hexyl benzene were dissolved in mixture of 10% DMSO, 0.02M Na2HPO4/NaH2PO4 buffer, and 0.006M NaCl (pH 6.9) and finally dilutions (31.05, 62.5, 125, 250, 500 and 1000 µg/mL) were prepared. In total, 200 μL α-amylase (2 units/mL) was mixed with 200 μL morin and incubated at 30 °C for 10 min. After that, 200 μL starch (1%) was added to each serial dilution and incubated for 3 min. To stop the reaction 200 μL sodium potassium tartrate tetrahydrate reagent, 2M NaOH, and […] DNSA (96mM) reagent were added to the reaction mixture. The reaction mixtures were boiled for 10 min at 85–90 °C in a water bath. After cooling the mixture was diluted with 5mL distilled water and finally at 540 nm absorbance was recorded. A blank solution was prepared containing only isolated compound morin but no enzyme. […] The α-amylase enzyme inhibitory activity was calculated by the following Equation (2): (2) % α − amylase Inhibition =control absorbance−sample absorbance/control absorbance×100
(§1) All the in vitro and in vivo experiments were analyzed in three replicates and determined as mean ± SEM. Student’s t-test and one way ANOVA followed by Dunnett’s post hoc multiple comparison test was used. p ≤ 0.05 were considered as significant. Linear regression analysis was used to calculate the IC50 value for % DPPH, ABTS, α-amylase, and α-glucosidase inhibition against the different concentrations of the test samples by means of Excel program 2007.

[2] = target: Type-I α-glucosidase (Baker Yeast) (Saccharomyces cerevisiae, UniProt P53341); test: In vitro α-glucosidase inhibition assay (PNPG); assay type: biochemical
Text: Chemicals such as Tween-80 (Scharlau-chem., Barcelona, Spain), normal saline solution (Utsoka Pharma, Las Bela Baluchistan, Pakistan), lipid profile tests kits (Human, Hamburg, Germany), renal profile tests kits, and antioxidant enzymes kits (Biomed: Germany; diagnostic) were used in in vivo study. Mueller Hinton (MH) agar and broth (Merck, Modderfontein, South Africa) were used to culture the bacterial strains. Various solvents such as methanol, n-hexane, ethyl acetate, and chloroform (Merck, Darmstadt, Germany) were also used in this study.
The α-glucosidase inhibition potential of morin was determined according to the reported method with minor changes. The reaction mixture was prepared by taking 100 μL α-glucosidase (0.5 unit/mL), 600 μL phosphate buffer (0.1 M; pH 6.9), and 50 μL of isolated compounds (morin, phloroglucinol, and 1-hexyl benzene) with serial dilutions of 31.05, 62.5, 125, 250, 500 and 1000 µg/mL. All the reaction mixtures were incubated at 37 °C for 15 min. The enzymatic reactions were started by adding 100 μL substrate (p-nitro-phenyl-α-D-glucopyranoside) solution (5 mM) formed in phosphate buffer (0.1 M; pH 6.9), finally incubated at 37 °C for 15 min. The reaction was completed by adding sodium carbonate (400 μL; 0.2 M) solution and then at 405 nm absorbance was measured. The blank solution was prepared containing only isolated compounds without α-glucosidase. Percent α-glucosidase inhibition potential was calculated using Equation (3): (3) % α − glucosidase Inhibition =control absorbance−sample absorbance/control absorbance×100
as §1

[3] = system: STZ-induced diabetic rats; test: Pancreas histopathological assessment (H & E); assay type: in vivo, Sprague Dawley adult albino rats; conditions: glibenclamide 5 mg/kg
Text: For histopathological assessment, the pancreas tissues were removed immediately and washed with cold saline solution to remove the blood. Finally, the pancreas portions were fixed in 10% formalin, dehydrated with mixture of ethanol/xylene and then fixed with paraffin. Staining of tissue slides was done with hematoxylin and eosin (H & E) dye through automatic slide stainer (Sakura Tissue-Tek® DRS™ 2000; Tokyo, Japan). According to the reported assay, the stained slides were observed under microscope to see any variation in pancreatic tissue architecture of STZ-induced diabetic group and treated (glibenclamide/morin) groups.

[4] = system: STZ-induced diabetic rats; test: STZ-induced diabetic rat model: serum biochemical parameters (liver, renal, lipid profile, HbA1c); assay type: in vivo, Sprague Dawley adult albino rats
Description: (§2) All the animals were separated into nine groups having eight animals each (Table 1). In the current investigational study STZ-induced diabetic model was used to evaluate the anti-hyperglycemic and anti-hyperlipidemic activity of isolated compound morin in chronic multiple dose experiment. All the animals were treated with their respective treatments for 21 days starting daily at 09:00 am. The fasting blood glucose levels were determined at 0, 4th, 7th, 10th, 15th, and 21st days with glucometer from the tail vein. Changes in the body weight were recorded for untreated control, diabetic, and treated groups in fasting condition from day 1 to day 21 of experimental period and are presented as % increase in body weight.
(§3) According to the reported protocol diabetes was induced into Sprague Dawley adult albino rats by intraperitoneal injection of STZ (50 mg/kg body weight). Blood samples were collected from the tail vein through glucometer strips by means of SD glucometer and the level of blood glucose was measured 72 h after STZ injection. Normal control groups were given normal saline (8 mL/kg, p.o.) as a vehicle, while isolated compound morin to the treatment groups from 3 days after STZ administration for 3 weeks. Animals with blood glucose levels higher than 300 mg/dL were considered diabetic. During the experiment the blood glucose level and body weights were measured.
On 21st day of in vivo antidiabetic activity, all the animals were anesthetized by intraperitoneal (IP) injection of pentobarbital sodium (35 mg/kg body weight) and euthanized by means of cervical decapitation according to the ARRIVE guidelines. Blood samples were collected by cardiac puncture and transferred to EDTA containing tubes. Blood was centrifuged at 3500 rpm for 10 min for the separation of serum. Biochemical parameters like serum alkaline phosphatase (ALP), serum glutamate pyruvate transaminase (SGPT), serum glutamate oxaloacetate transaminase (SGOT) and lipid parameters like total cholesterol (TC), triglycerides (TG), low-density lipoproteins (LDL), high-density lipoprotein (HDL), and serum creatinine in serum were assessed by using Biochemistry analyzer (PS-520; Shenzhen Procan Electronics-China) using diagnostic kits (Reactivos, GPL Barcelona, Spain). According to the reported protocol an enzyme-linked immunosorbent assay (ELISA) kit was used to evaluate the level of glycosylated hemoglobin (HbA1c).

[5] = system: STZ-induced diabetic rats; test: STZ-induced diabetic rat model: fasting blood glucose and body weight; assay type: in vivo, Sprague Dawley adult albino rats; conditions: vs diabetic control rats
Description: Sprague Dawley adult albino rats (body weight range = 170–200 g) were used in in vivo studies. The animals were purchased from Rifah Institute of Pharmaceutical Sciences Islamabad. The entire animals were given food and fresh water ad libitum. The animals were adjusted at room temperature around 22–25 °C. The animals were housed three rats per cage and maintained with light/dark cycle of about 12 h. All the in vivo procedures were carried out according to the ARRIVE guidelines and approval was taken from the Departmental Animal Ethical Committee (DAEC/2019/1), University of Malakand.
as §2, §3

Staphylococcus aureus = test: Agar well diffusion, zone of inhibition; assay type: cell-based; conditions: 37 °C, 24 h
Description: The antibacterial activity of the isolated compounds (morin, phloroglucinol, and 1-hexyl benzene) was determined using agar well diffusion method. Muller–Hinton agar media was prepared and autoclaved at 15 lbs pressure for 20 min and cooled to 45 °C. […] The entire wells were filled with 100 µL of the isolated compounds (stock solution: 1 mg/mL) using microtiter-pipette and allowed to diffuse at room temperature for 2 h. The plates were incubated at 37 °C for 24 h. In the center hole, Imipenem was added which served as positive control. Simultaneous, addition of an equal concentration of DMSO solvent instead of isolated compounds was used as blank. After incubation, the zones of inhibition were measured in millimeters (mm) and mean values were calculated. The experiments were performed in triplicates.

Bacillus cereus = test: Agar well diffusion, zone of inhibition; assay type: cell-based; conditions: 37 °C, 24 h
Description: (§4) Antibacterial potential of isolated compound was investigated against both Gram-positive and Gram-negative bacterial strains; Escherichia coli, Bacillus cereus, Salmonella typhi, Klebsiella pneumonia, Pseudomonas aeruginosa and Proteus mirabilis. Bacterial strains were provided by the Department of Pharmacy, University of Malakand, Khyber Pakhtunkhwa, Pakistan, and were kept at 4 °C in agar slants in freeze-dried condition until further use.
(§5) Both Gram-positive and Gram-negative bacterial strains Escherichia coli, Bacillus cereus, Salmonella typhi, Klebsiella pneumonia, Pseudomonas aeruginosa and Proteus mirabilis organism viable count per mL in the stock suspension was determined using surface viable counting technique. About 10^8–10^9 colony-forming units (CFU) per mL were used as inoculum in subsequent experiments. A fresh stock suspension was used each time.
(§6) The antibacterial activity of the isolated compounds (morin, phloroglucinol, and 1-hexyl benzene) was determined using agar well diffusion method. Muller–Hinton agar media was prepared and autoclaved at 15 lbs pressure for 20 min and cooled to 45 °C. The standard bacterial stock suspension 10^8–10^9 CFU/mL were spread on Muller–Hinton agar plates and five wells (3 mm in diameter; four on side and one in center) were punched in plates using a sterile cork borer. The entire wells were filled with 100 µL of the isolated compounds (stock solution: 1 mg/mL) using microtiter-pipette and allowed to diffuse at room temperature for 2 h. The plates were incubated at 37 °C for 24 h. In the center hole, Imipenem was added which served as positive control. Simultaneous, addition of an equal concentration of DMSO solvent instead of isolated compounds was used as blank. After incubation, the zones of inhibition were measured in millimeters (mm) and mean values were calculated. The experiments were performed in triplicates.

Proteus mirabilis = test: Agar well diffusion, zone of inhibition; assay type: cell-based; conditions: 37 °C, 24 h
Description: as §4, §5, §6

Escherichia coli = test: Agar well diffusion, zone of inhibition; assay type: cell-based; conditions: 37 °C, 24 h
Description: as §4, §5, §6

Klebsiella pneumonia = test: Agar well diffusion, zone of inhibition; assay type: cell-based; conditions: Klebsiella pneumoniae, 37 °C, 24 h
Description: as §4, §5, §6

Pseudomonas aeruginosa = test: Agar well diffusion, zone of inhibition; assay type: cell-based; conditions: 37 °C, 24 h
Description: as §4, §5, §6

Salmonella typhi = test: Agar well diffusion, zone of inhibition; assay type: cell-based; conditions: Salmonella enterica, TYPHI, 24 h
[6] = glibenclamide 0.5 mg/kg, morin 15, 30, and 50 mg/kg, vs diabetic control rats
[7] = glibenclamide 5 mg/kg, morin 15, 30, and 50 mg/kg body weight, serum, day 21, vs diabetic control

Type-I α-glucosidase (Baker Yeast), sequence (P53341 whole entry): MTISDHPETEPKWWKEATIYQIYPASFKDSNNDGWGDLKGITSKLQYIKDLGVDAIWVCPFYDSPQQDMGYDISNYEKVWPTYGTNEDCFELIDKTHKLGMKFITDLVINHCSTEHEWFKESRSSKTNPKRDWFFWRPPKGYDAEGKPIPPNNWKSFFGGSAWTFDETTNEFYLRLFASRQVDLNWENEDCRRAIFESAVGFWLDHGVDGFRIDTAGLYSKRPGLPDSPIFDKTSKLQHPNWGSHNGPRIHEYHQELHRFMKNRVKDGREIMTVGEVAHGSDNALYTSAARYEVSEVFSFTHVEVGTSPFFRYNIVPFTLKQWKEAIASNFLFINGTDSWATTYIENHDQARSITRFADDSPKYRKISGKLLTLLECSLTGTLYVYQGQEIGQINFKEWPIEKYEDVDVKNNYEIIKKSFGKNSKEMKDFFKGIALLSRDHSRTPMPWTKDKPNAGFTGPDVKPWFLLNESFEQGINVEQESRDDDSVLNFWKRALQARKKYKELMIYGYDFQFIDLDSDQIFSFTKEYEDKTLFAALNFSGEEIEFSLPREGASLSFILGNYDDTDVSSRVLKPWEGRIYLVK

C[C@H]1O[C@H](O[C@H]2[C@H](O)[C@@H](O)[C@@H](O[C@H]3[C@H](O)[C@@H](O)C(O)O[C@@H]3CO)O[C@@H]2CO)[C@H](O)[C@@H](O)[C@@H]1N[C@H]1C=C(CO)[C@@H](O)[C@H](O)[C@H]1O (stereo partly shown) [Standard acarbose, acarbose, reference compound]
inhibition at 31.05 µg/mL [1]: 48 ± 0.4% | inhibition at 62.5 µg/mL [1]: 62 ± 0.5% | inhibition at 125 µg/mL [1]: 69 ± 0.5% | inhibition at 250 µg/mL [1]: 75 ± 1.1% | inhibition at 500 µg/mL [1]: 83 ± 0.5% | inhibition at 1000 µg/mL [1]: 90 ± 0.5% | % α-Glucosidase Inhibition Mean ± SEM ([2]; 31.05 µg/mL): 60 ± 0.4% | % α-Glucosidase Inhibition Mean ± SEM ([2]; 62.5 µg/mL): 68 ± 0.5% | % α-Glucosidase Inhibition Mean ± SEM ([2]; 125 µg/mL): 71 ± 0.5% | % α-Glucosidase Inhibition Mean ± SEM ([2]; 250 µg/mL): 77 ± 1.0% | % α-Glucosidase Inhibition Mean ± SEM ([2]; 500 µg/mL): 82 ± 0.4% | % α-Glucosidase Inhibition Mean ± SEM ([2]; 1000 µg/mL): 89 ± 0.5%

COc1ccc(Cl)cc1C(=O)NCCc1ccc(S(=O)(=O)NC(=O)NC2CCCCC2)cc1 [glibenclamide, reference compound]
pancreas histopathology [3]: did not show any violation from the normal histological pattern | HDL cholesterol [4, 6]: significantly increased (p < 0.01) | HbA1c level [4, 6]: significant decrease (p < 0.01; p < 0.001) | LDL level [4, 6]: significant decrease (p < 0.01; p < 0.001) | TC level [4, 6]: significant decrease (p < 0.01; p < 0.001) | TG level [4, 6]: significant decrease (p < 0.01; p < 0.001) | serum creatinine level ([4]; glibenclamide 5 mg/kg, morin 15, 30, and 50 mg/kg body weight, day 21, vs diabetic control): significantly reduced (p < 0.01; p < 0.001) | ALP level [4, 7]: significantly reduced (p < 0.01; p < 0.001) | SGOT level [4, 7]: significantly reduced (p < 0.01; p < 0.001) | SGPT level [4, 7]: significantly reduced (p < 0.01; p < 0.001) | body weight ([5]; glibenclamide 0.5 mg/kg, p.o.): significantly (p < 0.001) reversed the diabetes-induced decrease in body weight | fasting glucose level ([5]; glibenclamide 5 mg/kg body weight, day 21): significantly (p < 0.001) decreased

C[C@@H](O)[C@H]1C(=O)N2C(C(=O)O)=C(SCCN=CN)C[C@H]12 [Imipenem, reference compound]
zone of inhibition at 100 µg/mL (Staphylococcus aureus): 25 ± 0.3 mm | zone of inhibition at 100 µg/mL (Bacillus cereus): 30 ± 0.5 mm | zone of inhibition at 100 µg/mL (Proteus mirabilis): 30 ± 0.5 mm | zone of inhibition at 100 µg/mL (Escherichia coli): 33 ± 0.2 mm | zone of inhibition at 100 µg/mL (Klebsiella pneumonia): 29 ± 0.5 mm | zone of inhibition at 100 µg/mL (Pseudomonas aeruginosa): 27 ± 1.1 mm | zone of inhibition at 100 µg/mL (Salmonella typhi): 33 ± 0.1 mm
